In article PMC9616531 (Plant Biotechnology Journal, 2022) one finds Km data, which are given here for two molecules.

The experiment relates to UGT72B23. Nature of the experiment: UDP-Glo glycosyltransferase assay. It is filed as biochemical, Camellia sinensis. As to conditions: read-out: apparent Km; UDP-glucose co-substrate, pH 7.5, 40 °C.

As to `O=C(O[C@@H]1Cc2c(O)cc(O)cc2O[C@@H]1c1ccc(O)c(O)c1)c1cc(O)c(O)c(O)c1` [epicatechin gallate], the Km (as a rule, the substrate concentration at which the rate is half of its maximum) turned out to be 31.2 µM.
As for `O=C(O[C@@H]1Cc2c(O)cc(O)cc2O[C@@H]1c1cc(O)c(O)c(O)c1)c1cc(O)c(O)c(O)c1` [epigallocatechin gallate], the figure is 27.9 µM.
